Values quoted from earlier work as cited in US4925674A (hiMedics, Inc., priority 1988, dated 1990).

Settings: well known

For CC1(C)S[C@@H]2[C@H](NC(=O)[C@H](N)c3ccc(O)cc3)C(=O)N2[C@H]1C(=O)O [Amoxicillin, amoxicillin], the dose-related gastrointestinal upsets is given as “dose-related gastrointestinal upsets (epigastric distress, nausea, vomiting, and especially diarrhea) occur commonly”.
